Among the data in PubChem BioAssay (NCI) are TGI and GI50 values, retold here.

Holding throughout (assay): NCI tumour cell line growth inhibition, 48 h
Experiment [1] concerns SK-MEL-5 melanoma.
In experiment [2] the test system is NCI-H23 lung.
The test system of experiment [3] is HL-60(TB) leukemia.
In experiment [4] the test system is OVCAR-8 ovarian.
For experiment [5], the system named is RXF 393 renal.
The test system of experiment [6] is BT-549 breast.
The subject of experiment [7] is SK-OV-3 ovarian.
In experiment [8] the test system is SN12C renal.
The test system of experiment [9] is UACC-257 melanoma.
Experiment [10] relates to OVCAR-3 ovarian.

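Assay format: 96-well plates, 48-hour exposure. Here, GI50 denotes the concentration required for 50% inhibition of growth. TGI denotes the concentration required for complete inhibition of growth.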

As for `O=C1C(Br)=C(c2ccccc2)S(=O)c2ccccc21` (stereo not given), the TGI in experiment [1] turned out to be 24.7 µM; in [2], 39.7 µM; in [3], 6.63 µM; in experiment [4] it was 31.3 µM; in experiment [5] it was 24.8 µM; in [6], 32.1 µM. The TGI is 32.9 µM in experiment [7], 31 µM in experiment [8], 25.8 µM in experiment [9] and 26 µM in experiment [10].

For the compound `COc1ccc(C(=O)N2c3ccccc3Sc3ccccc32)c(C(F)(F)F)c1`, the GI50 in [1] was 0.692 µM; in experiment [2], 0.578 µM; in [3] it was 0.252 µM; in experiment [4], 0.593 µM; in experiment [5], 0.362 µM; in experiment [6] it was 0.892 µM. The GI50 in experiment [7] was 0.794 µM; in experiment [8], 1.3 µM; in [9], 13.7 µM; in experiment [10] it was 0.332 µM. Further, the TGI in experiment [1] is 16.6 µM; in [2] it was above 100 µM; in experiment [3] it was 0.793 µM; in experiment [4], above 100 µM; in experiment [5], above 100 µM; in experiment [6] it was 13.6 µM. Also, the TGI in experiment [7] is above 100 µM; in [8], above 100 µM; in experiment [9] it was above 100 µM; in experiment [10] it was 28.1 µM.

Consider `COc1cc(/C=C2/N=C(c3ccccc3)N(C3=NNC4(C(=O)N3)c3ccccc3-c3ccccc34)NC2=O)ccc1O`, for which the GI50 was 20.3 µg/mL in experiment [1]; 15 µg/mL in experiment [2]; 51.2 µg/mL in experiment [3]; 24 µg/mL in [4]; 26.7 µg/mL in [5]; 25.9 µg/mL in experiment [6]. For the same compound, the GI50 in [7] was 19 µg/mL; in experiment [8], 25.6 µg/mL; in experiment [9] it was 27.2 µg/mL; in [10], 24.8 µg/mL. For the same compound, the TGI in experiment [1] is 39.6 µg/mL; in [2], 15 µg/mL; in experiment [3], above 150 µg/mL; in experiment [4], 45.5 µg/mL; in [5], 48.6 µg/mL; in experiment [6], 47.5 µg/mL. The TGI in experiment [7] worked out at 37.8 µg/mL; in experiment [8], 56.8 µg/mL; in [9], 51.8 µg/mL; in [10], 53.5 µg/mL.

For the compound `CC(=O)N1CCN(C23OC4(N5CCN(C(C)=O)CC5)C5C6CC(C7C6C4C72)C53)CC1` (stereo not given), the TGI in experiment [1], in experiment [2], in experiment [3], in experiment [4], in experiment [5] and in experiment [6] was above 100 µM each time. In addition, the TGI in [7], in experiment [8], in experiment [9] and in [10] was above 100 µM throughout.

Take `COc1cc(C2S/C(=C/c3ccccc3)C(=O)N2c2ccc(Cl)c(Cl)c2)cc(OC)c1OC` (stereo not given): the TGI in [1], in [2], in experiment [3], in experiment [4], in experiment [5] and in [6] was above 100 µM throughout. The TGI in [7], in [8], in experiment [9] and in experiment [10] was above 100 µM each time.

As for `CSC1=NS(=O)(=O)c2cc(C(=O)NN(C)C(=O)c3cc4c(cc3Cl)SC(SC)=NS4(=O)=O)c(Cl)cc2S1`, the TGI in experiment [1], in experiment [2], in [3], in experiment [4], in experiment [5] and in experiment [6] was above 10 µM in each case. Moreover, the TGI in [7], in [8], in experiment [9] and in [10] was above 10 µM in each case.

Regarding `COC(=O)[C@@H]1C[C@@]2(C3C=CN(C(=O)C(F)(F)F)C=C3)c3ccccc3N(C(=O)C(F)(F)F)[C@H]2N1C(=O)OC`, the TGI is above 100 µM in experiment [1]; above 100 µM in experiment [2]; above 100 µM in experiment [3]; above 100 µM in experiment [4]; 60.4 µM in experiment [5]; above 100 µM in experiment [6]. The TGI in experiment [7], in experiment [8], in [9] and in experiment [10] was above 100 µM in each case.

In the case of `O=C(N[C@H]1c2ccsc2/C(=N/O)[C@H]1O)C(F)(F)F`, the TGI in [1], in experiment [2], in experiment [3], in experiment [4], in experiment [5] and in [6] was above 100 µM in each case. In addition, the TGI in experiment [7], in experiment [8], in experiment [9] and in experiment [10] was above 100 µM throughout.

Take `COc1cc2c(/C=C3/C(=O)N(c4ccccc4)c4ccccc43)c(Cl)[nH]c2cc1C`: the TGI in experiment [1] was 8.35 µM; in [2], 7.81 µM; in experiment [3], above 23.1 µM; in [4], above 31.6 µM; in experiment [5], above 81.4 µM; in experiment [6], 7.56 µM. In addition, the TGI worked out at 4.78 µM in experiment [7], 6.29 µM in [8], 21.3 µM in experiment [9] and 9.66 µM in [10].

Consider `C/C(O)=C/c1nc2ccc([N+](=O)[O-])cc2nc1/C=C(/C)O`, for which the TGI in experiment [1], in experiment [2], in experiment [3], in experiment [4], in experiment [5] and in [6] was above 100 µM in each case. For the same compound, the TGI in [7] is above 100 µM; in [8], above 100 µM; in experiment [9] it was 72.7 µM; in experiment [10], above 100 µM.

`Cc1c(-c2ccccc2)c(C#N)c2nnc(C(N)=O)c(N)n12`: the TGI in experiment [1], in experiment [2], in experiment [3], in experiment [4], in experiment [5] and in [6] was above 100 µM in each case. Moreover, the TGI in [7], in [8], in experiment [9] and in experiment [10] was above 100 µM in each case.

As for `CN(C)CCNc1ncnc2nc(-c3ccc4ccccc4c3)[nH]c12`, the TGI in experiment [1], in experiment [2], in experiment [3], in experiment [4], in experiment [5] and in experiment [6] was above 100 µM throughout. For the same compound, the TGI in experiment [7], in experiment [8], in [9] and in experiment [10] was above 100 µM in each case.

Consider `Cn1nc(S(N)(=O)=O)s/c1=N/C(N)=S`, for which the TGI in experiment [1], in experiment [2], in [3], in experiment [4], in experiment [5] and in experiment [6] was above 100 µM throughout. In addition, the TGI in [7], in [8], in [9] and in experiment [10] was above 100 µM throughout.

Take `NNc1nncn1N`: the TGI in experiment [1] is above 100 µM; in experiment [2] it was above 79.5 µM; in experiment [3], above 100 µM; in experiment [4], above 100 µM; in experiment [5] it was above 100 µM; in experiment [6], above 100 µM. In addition, the TGI in [7], in experiment [8], in experiment [9] and in experiment [10] was above 100 µM each time.

On to `O=c1oc2ccc(Cl)cc2cc1-c1cn2cc(Cl)ccc2n1`, for which the TGI in experiment [1], in [2], in experiment [3], in experiment [4], in experiment [5] and in [6] was above 100 µM in each case. Moreover, the TGI in [7], in [8], in [9] and in experiment [10] was above 100 µM each time.

For `CC(C)CNC(=O)Cn1c(-c2ccccc2)cc2ccccc21`, the TGI in experiment [1], in experiment [2], in experiment [3], in experiment [4], in experiment [5] and in experiment [6] was above 100 µM in each case. The TGI in [7], in [8], in experiment [9] and in [10] was above 100 µM throughout.

Consider `[N-]=[N+]=Nc1ccc(CNc2cc(=O)[nH]c(=O)[nH]2)cc1`, for which the TGI in experiment [1], in [2], in [3], in experiment [4], in experiment [5] and in [6] was above 100 µM in each case. The TGI in experiment [7], in [8], in experiment [9] and in experiment [10] was above 100 µM each time.

On to `Cn1c2ccccc2c2c3c(c4c5ccccc5n(C)c4c21)C(=O)c1ccccc1C3=O`, for which the TGI is above 100 µM in [1]; 63.5 µM in experiment [2]; above 100 µM in experiment [3]; above 100 µM in experiment [4]; 48.6 µM in [5]; 52.6 µM in experiment [6]. The TGI in experiment [7], in experiment [8], in experiment [9] and in experiment [10] was above 100 µM throughout.

Turning to `Cc1c2c(OCCCCN3CCN(c4ncccn4)CC3)nn(C)c(=O)c2c(C)n1-c1ccccc1`, the TGI in [1] was found to be 26.8 µM; in experiment [2] it was 37 µM; in [3] it was 47.2 µM; in [4], 61.3 µM; in experiment [5] it was 41.8 µM; in experiment [6], 34.5 µM. The TGI stood at 35.4 µM in experiment [7], 34.5 µM in experiment [8], 33.5 µM in experiment [9] and 41.9 µM in [10].

`CC1(COS(=O)(=O)OCC2(C)COS(=O)(=O)OC2)COS(=O)(=O)OC1`: the TGI in [1] is above 100 µM; in experiment [2], above 89.4 µM; in [3] it was above 58 µM; in experiment [4], above 100 µM; in [5], above 100 µM; in experiment [6], above 96.2 µM. Further, the TGI in experiment [7] is above 100 µM; in experiment [8], above 32.1 µM; in experiment [9] it was above 100 µM; in experiment [10] it was above 100 µM.

Regarding `CC(C)OP(=O)(OC(C)C)C(C(C)C)N(C)/C(F)=N/C(F)(F)F` (stereo not given), the TGI in [1], in experiment [2], in experiment [3], in experiment [4], in experiment [5] and in experiment [6] was above 100 µM throughout. Moreover, the TGI in experiment [7], in experiment [8], in [9] and in [10] was above 100 µM throughout.

On to `O=c1[nH]c2cc3[nH]c4ncccc4c(=O)c3cc2[nH]1`, for which the TGI in [1], in [2], in experiment [3], in experiment [4], in experiment [5] and in [6] was above 10 µM throughout. Besides, the TGI in experiment [7], in [8], in [9] and in experiment [10] was above 10 µM throughout.
